Results published in patent US20260294905A1, “USE OF PLURALITY OF COMPOUNDS IN PREPARATION OF DRUG FOR TREATING MYELOPROLIFERATIVE NEOPLASMS” (THE SECOND XIANGYA HOSPITAL OF CENTRAL SOUTH UNIVERSITY, priority 2022, published 2026).
Values joined by “and” are separate entries in the source; they are usually repeats but may differ in a detail not shown here. Identical values can stand only once. “Also recorded” adds a separate entry of the source.

How the values were obtained:
[1] = tested on: HEL^RE cells (Ruxolitinib-resistant HEL); test: CellTiter-Lumi luminescence proliferation of Ruxolitinib-resistant HEL^RE cells, 48 h; format: cell-based, human; conditions: HEL^RE cells; for inhibition of proliferation of HEL^RE cells (in words): 0.1-10 μM; for activity at 0.1 µM / activity at 0.3 µM / activity at 1 µM / activity at 3 µM / activity at 10 µM: Homo sapiens, 48 h, vs DMSO control, read-out: average proliferation rate of HEL^RE cells
From the text: (§1) HELs (Human erythroleukemia cell lines) and Ruxolitinib-resistant HEL cells were both cultured in a RPMI medium (Gibco) containing 20% heat-inactivated fetal bovine serum (Gibco) and 1% penicillin/streptomycin.
A Ruxolitinib-resistant HEL model, i.e., a HEL^RE model, was constructed by starting the addition of Ruxolitinib at a concentration lower than the IC50 of naïve cells and slowly incrementing the concentration to a high concentration, and preventing the cells from being killed. Our starting concentration was 0.1 μM. The drug was added upon occurrence of cell proliferation. The drug addition gradient was an increment at a multiple of 1.25, and the final concentration was 2.0 μM. Stable drug-resistant cells were obtained after 4-6 weeks.
(§2) Ruxolitinib and other compounds were all purchased from Selleck, dissolved in DMSO with a stock solution concentration of 10 mM, and cryopreserved at −80° C. The working solution was diluted to a specified multiple using a RPMI medium and then used for treating cells. Ruxolitinib was specifically ruxolitinib phosphate.
(§3) To detect the antiproliferative effect of the inhibitor, the aforementioned cell lines were cultured at 3,000 cells/100 μL of the system per well, added with increasing concentrations of Ruxolitinib (concentration gradients of HEL cells: 0, 0.1, 1, 2.5, 5 μM; or 0, 0.1, 0.3, 1, 3, 10 μM), and added with DMSO to make up to the same amount. 4 parallel replicate groups were set up, and 3 blank wells (wells containing culture media without cells) were set up.
(§4) A calculation formula of the cell proliferation rate was: cell proliferation rate=(Luminescence value of the group added with the drug-average Luminescence value of the blank wells)/(Luminescence value of the DMSO control group-average Luminescence value of the blank wells)×100%.
A method for evaluating whether the model was successfully constructed was to compare the IC50s of resistant cells and naïve cells.
In order to detect the effects of five compounds on the proliferation abilities of drug-resistant myeloproliferative neoplasm cells, the method was to treat HEL^RE with increasing concentrations of Ruxolitinib and the five compounds respectively, and to detect the proliferation of the cells by a CellTiter-Lumi™ luminescence method.

[2] = tested on: HEL cells (human erythroleukemia cell line); test: CellTiter-Lumi luminescence proliferation of naive HEL cells, 48 h; format: cell-based; conditions: for inhibition of proliferation of HEL cells (in words): 0.1-10 μM; for activity at 0.1 µM / activity at 0.3 µM / activity at 1 µM / activity at 3 µM / activity at 10 µM: Homo sapiens, 48 h, vs DMSO control, read-out: average proliferation rate of HEL cells
Experimental: as §1, §2, §3, §4
In order to detect the effects of the compounds on the proliferation abilities of drug-resistant myeloproliferative neoplasm cells, the method was to treat the HEL naïve cell lines with increasing concentrations of Ruxolitinib and the compounds respectively, and to detect the proliferation of the cells by a CellTiter-Lumi™ luminescence method.

[3] = tested on: neuroblastoma mouse model; conditions: cited from earlier work
[4] = tested on: non-small cell lung cancer; conditions: non-small cell lung cancer patients, RP2D 275 mg per day; cited from earlier work
neuroblastoma cells = conditions: cited from earlier work
[5] = tested on: HEL cells (human erythroleukemia cell line); test: Annexin V-PI staining and flow cytometry, apoptosis of HEL cells, 24 h; format: cell-based; conditions: for promotion of apoptosis of HEL cells (in words): 0.1-10 μM
Experimental: • 1. the cell lines and inhibitors were the same as those in Example 1. • 2. detection of cell apoptosis
(§5) To detect the apoptosis-promoting effect of the inhibitors, HEL naïve cell strains were treated with Ruxolitinib and the compounds for 24 hours respectively (with concentrations of: 0, 0.1, 0.5, 1 μM or 0, 0.1, 0.3, 1, 3, 10 μM), and added with DMSO to make up to the same amount. 3 parallel replicate groups were set up, and cell apoptosis was detected by Annexin V and PI staining followed by flow cytometry.
(§6) A calculation formula of cell apoptosis rate was: cell apoptosis rate=the ratio of early apoptotic cells (Annexin V^+/PI^−)+the ratio of late apoptotic cells and necrotic cells (Annexin V^+/PI^+).

[6] = tested on: HEL^RE cells (Ruxolitinib-resistant HEL); test: Annexin V-PI staining and flow cytometry, apoptosis of HEL^RE cells; format: cell-based, human; conditions: for average apoptosis rate of HEL-RE cells: 24 h; for promotion of apoptosis of HEL^RE cells (in words): 0.1-10 μM
Experimental: as §5, §6
In order to detect the effects of compounds on the abilities of drug-resistant myeloproliferative neoplasm cells, the method was to treat HEL^RE with increasing concentrations of Ruxolitinib and the compounds, and to detect cell apoptosis by Annexin V and PI staining followed by flow cytometry.

[7] = tested on: progressive or metastatic solid tumors; conditions: RP2D 2.7 mg, cited from earlier work
[8] = tested on: preclinical model including melanoma; conditions: cited from earlier work
[9] = orally once a week, RP2D 420 mg/m^2 (not exceeding 600 mg); cited from earlier work

COc1cc2ncnc(Oc3cccc(NC(=O)Nc4cc(C(C)(C)C(F)(F)F)on4)c3)c2cc1OC [Agerafenib]
inhibition of proliferation of HEL^RE cells (in words) [1]: could inhibit the proliferation of the HEL^RE cells, and this effect was increased with the increase of the drug concentration | activity at 0.1 µM [1]: 4.26 ± 0.46% | activity at 0.3 µM [1]: 2.77 ± 0.43% | activity at 1 µM [1]: 2.75 ± 0.94% | activity at 3 µM [1]: 2.21 ± 0.04% | activity at 10 µM [1]: 1.86 ± 0.23% | inhibition of proliferation of HEL cells (in words) [2]: can successfully inhibit the proliferation of the HEL cells; also recorded: could inhibit the proliferation of the HEL cells, and this effect was increased with the increase of the drug concentration | activity at 0.1 µM [2]: 90.1 ± 3.01% | activity at 0.3 µM [2]: 93.8 ± 12.4% | activity at 1 µM [2]: 83.2 ± 4.45% | activity at 3 µM [2]: 70.3 ± 3.47% | activity at 10 µM [2]: 40.1 ± 8.26% | tumor growth and survival [3]: able to inhibit tumor growth of and prolong the survival of mice significantly | anti-tumor activity [4]: good anti-tumor activity | proliferation and colony formation of neuroblastoma cells (neuroblastoma cells; in vitro): able to inhibit the proliferation and colony formation of neuroblastoma cells in vitro | combination with traditional chemotherapy drugs (neuroblastoma cells; with traditional chemotherapy drugs): had a synergistic effect with traditional chemotherapy drugs | average apoptosis rate of HEL cells ([5]; 0.1 μM): 4.41±0.630% and 4.41% | average apoptosis rate of HEL cells ([5]; 0.3 μM): 4.98±1.09% and 4.98% | average apoptosis rate of HEL cells ([5]; 1 μM): 3.42±0.140% and 3.42% | average apoptosis rate of HEL cells ([5]; 3 μM): 5.27% | average apoptosis rate of HEL cells ([5]; 10 μM): 5.43±0.720% and 5.43% | promotion of apoptosis of HEL cells (in words) [5]: could not promote apoptosis of the HEL cells | average apoptosis rate of HEL-RE cells ([6]; 0.1 μM): 7.05±0.920% and 7.05% | average apoptosis rate of HEL-RE cells ([6]; 0.3 μM): 5.33±0.430% and 5.33% | average apoptosis rate of HEL-RE cells ([6]; 1 μM): 5.11±0.210% and 5.11% | average apoptosis rate of HEL-RE cells ([6]; 3 μM): 7.37±0.220% and 7.37% | average apoptosis rate of HEL-RE cells ([6]; 10 μM): 8.22±0.390% and 8.22% | promotion of apoptosis of HEL^RE cells (in words) [6]: could not promote apoptosis of the HEL^RE cells

CNS(=O)(=O)Nc1nccc(Cc2c(C)c3ccc(Oc4ncccn4)cc3oc2=O)c1F [RO5126766]
inhibition of proliferation of HEL^RE cells (in words) [1]: could inhibit the proliferation of the HEL^RE cells, and this effect increased with increase in the drug concentration | activity at 0.1 µM [1]: 48.1 ± 3.37% | activity at 0.3 µM [1]: 41.4 ± 3.16% | activity at 1 µM [1]: 35.2 ± 2.89% | activity at 3 µM [1]: 31.5 ± 1.9% | activity at 10 µM [1]: 27.7 ± 2.34% | inhibition of proliferation of HEL cells (in words) [2]: can successfully inhibit the proliferation of the HEL cells; also recorded: could inhibit the proliferation of the HEL cells, and this effect increased with increase in the drug concentration | activity at 0.1 µM [2]: 85.8 ± 2.75% | activity at 0.3 µM [2]: 89 ± 13.5% | activity at 1 µM [2]: 83.4 ± 3.31% | activity at 3 µM [2]: 61.6 ± 3.79% | activity at 10 µM [2]: 47.1 ± 5.47% | anti-tumor activity ([7]; 4 consecutive days a week for 4 weeks): good anti-tumor activity | side effects [7]: tolerable side effects | average apoptosis rate of HEL cells ([5]; 0.1 μM): 6.00±0.290% and 6.00% | average apoptosis rate of HEL cells ([5]; 0.3 μM): 6.96±1.16% and 6.96% | average apoptosis rate of HEL cells ([5]; 1 μM): 6.11±0.640% and 6.11% | average apoptosis rate of HEL cells ([5]; 3 μM): 8.32±2.69% and 8.32% | average apoptosis rate of HEL cells ([5]; 10 μM): 6.73±1.20% and 6.73% | promotion of apoptosis of HEL cells (in words) [5]: could not promote apoptosis of the HEL cells | average apoptosis rate of HEL-RE cells ([6]; 0.1 μM): 6.25±0.920% and 6.25% | average apoptosis rate of HEL-RE cells ([6]; 0.3 μM): 5.88±1.25% and 5.88% | average apoptosis rate of HEL-RE cells ([6]; 1 μM): 7.32±1.74% and 7.32% | average apoptosis rate of HEL-RE cells ([6]; 3 μM): 4.71±0.350% and 4.71% | average apoptosis rate of HEL-RE cells ([6]; 10 μM): 5.42±0.830% and 5.42% | promotion of apoptosis of HEL^RE cells (in words) [6]: could not promote apoptosis of the HEL^RE cells

C[C@@H](NC(=O)c1ncnc(N)c1Cl)c1ncc(C(=O)Nc2cc(C(F)(F)F)c(Cl)cn2)s1 [MLN2480]
inhibition of proliferation of HEL^RE cells (in words) [1]: could inhibit the proliferation of drug-resistant myeloproliferative neoplasm cells, and this effect was increased with the increase of the drug concentration | overall effectiveness among the compounds ([1]; proliferation and apoptosis taken together): more effective | activity at 0.1 µM [1]: 103 ± 8.58% | activity at 0.3 µM [1]: 75.1 ± 3.54% | activity at 1 µM [1]: 46.5 ± 9.45% | activity at 3 µM [1]: 18.9 ± 4.22% | activity at 10 µM [1]: 10.3 ± 0.49% | inhibition of proliferation of HEL cells (in words) [2]: could not inhibit the proliferation of the HEL cells | activity at 0.1 µM [2]: 98.5 ± 2.62% | activity at 0.3 µM [2]: 97.9 ± 3.55% | activity at 1 µM [2]: 97.3 ± 0.78% | activity at 3 µM [2]: 98.3 ± 0.65% | activity at 10 µM [2]: 97.6 ± 3.47% | anti-tumor activity [8]: good anti-tumor activity | safety [9]: good safety and low toxic and side effects | average apoptosis rate of HEL cells ([5]; 0.1 μM): 4.61±2.768% and 4.61% | average apoptosis rate of HEL cells ([5]; 0.3 μM): 3.85±0.101% and 3.85% | average apoptosis rate of HEL cells ([5]; 1 μM): 5.53±1.22% and 5.53% | average apoptosis rate of HEL cells ([5]; 3 μM): 10.04±2.663% and 10.04% | average apoptosis rate of HEL cells ([5]; 10 μM): 8.8±1.063% and 8.8% | promotion of apoptosis of HEL cells (in words) [5]: could not promote the apoptosis of myeloproliferative neoplasm cells | average apoptosis rate of HEL-RE cells ([6]; 0.1 μM): 6.54±0.560% and 6.54% | average apoptosis rate of HEL-RE cells ([6]; 0.3 μM): 7.80±0.900% and 7.80% | average apoptosis rate of HEL-RE cells ([6]; 1 μM): 10.9±0.390% and 10.9% | average apoptosis rate of HEL-RE cells ([6]; 3 μM): 15.5±0.580% and 15.5% | average apoptosis rate of HEL-RE cells ([6]; 10 μM): 13.8±0.775% and 13.8% | promotion of apoptosis of HEL^RE cells (in words) [6]: could promote apoptosis of Ruxolitinib-resistant myeloproliferative neoplasm cells, and this effect was increased with the increase of the drug concentration; also recorded: can promote the apoptosis of the HEL^RE cells
